Here are results for one substance from paper PMC10994248 (The Oncologist, 2024).

Broadly, the IC50 is the concentration at which inhibition is half-maximal. For orientation: IC90 means the point of the concentration-response curve where the effect stands at 90%.

The nature of data set [1]: Clinical pharmacokinetics, plasma tinengotinib by LC-MS/MS. It counts as in vivo, human. To be noted: doses of 8 mg and above. The protocol:
Dose-escalation sample size was determined by dose levels and emerging toxicities. […] Descriptive statistics were used for safety, pharmacokinetic, and efficacy data as outlined in the protocol and as specified in the statistical analysis plan. Pharmacokinetic parameters were estimated using Phoenix WinNonlin version 7.0 or higher (Certara USA, Inc., Princeton, NJ). All other statistical analyses were performed with SAS software version 9.4 (SAS Institute Inc., Cary, NC).

Data set [2] deals with FGFR2 (Homo sapiens, UniProt P21802). In words: ELISA assay for cellular phosphorylated FGFR2 in KATO III cell line cultured in healthy donor plasma. The data set is classed as cell-based. The protocol: Cellular phosphorylated FGFR2 was determined using the commercial enzyme-linked immunosorbent assay (ELISA) kit (R&D Systems) according to the manufacturer’s instructions.
Supplementary Table S6. […] Receptor phosphorylation was determined by enzyme-linked immunosorbent assay.
Background: An ELISA detects its analyte on a solid surface through an enzyme-linked reagent.

For data set [3] the following is noted: reduction in neutrophils, monocytes, and lymphocytes ref in-house source data; cited from earlier work.
The mark [4] stands for this setting: KATO III cell line, healthy donor plasma.

FGFR2, sequence (P21802 430-767 limits assumed): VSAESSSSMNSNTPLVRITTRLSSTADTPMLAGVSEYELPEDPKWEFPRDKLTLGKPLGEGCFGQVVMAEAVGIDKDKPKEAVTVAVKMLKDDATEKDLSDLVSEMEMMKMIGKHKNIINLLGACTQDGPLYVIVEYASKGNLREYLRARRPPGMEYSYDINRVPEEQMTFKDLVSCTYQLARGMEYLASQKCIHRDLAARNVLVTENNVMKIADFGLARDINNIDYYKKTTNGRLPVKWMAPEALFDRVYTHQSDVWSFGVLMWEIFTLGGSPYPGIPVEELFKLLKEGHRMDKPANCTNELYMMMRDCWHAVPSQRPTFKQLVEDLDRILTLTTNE

Regarding tinengotinib, the “Mean t1/2 (half-life)” value in data set [1] was 28 to 34 h. Also, in data set [2] (KATO III cell line model), the “IC70, FGFR2 phosphorylation” value is 37.85 nM and the “IC85, FGFR2 phosphorylation” value came out at 90.28 nM. In addition, in data set [2] (KATO III cell line model, read-out: IC50, FGFR2 phosphorylation), the IC50 came to 16.5 nM. In data set [2] (setting [4]), the “IC50, FGFR2 phosphorylation” value was determined as 0.00651 µg/mL and the “IC90, FGFR2 phosphorylation” value is 0.05607 µg/mL. Besides, the IC90 in data set [2] (KATO III cell line, healthy donor plasma, read-out: IC90, FGFR2 phosphorylation) came to 142 nM. Also, the FGFR2 inhibition maintained in data set [2] (tinengotinib dosed at ≥5 mg once daily, from IC70 and Cmin) is listed as more than 70%. Besides, the FGFR2 inhibition maintained in data set [2] (tinengotinib dosed at ≥12 mg once daily, from IC85 and Cmin) was more than 85%. Besides, the Preclinical toxicity finding result in data set [3] was “myelosuppression”.
